Data taken from patent publication US9409952B2, “Peptide-compound cyclization method” (Chugai Seiyaku Kabushiki Kaisha, priority 2011, dated 2016).
Like-named read-outs stand apart in the source and are kept apart here. Starred links: 1 amine or outer side, 2 acyl side, 3 side chain; linkers in the order of their positions; H or OH if unused. Positions of bridges follow the written chain, without caps; N, C: chain ends. Non-standard residues stand in square brackets, D forms with d. Residues, ends and D or L forms follow the SMILES beside them. *: point of attachment. NMeF = CN[C@@H](Cc1ccccc1)C(=O)O; NMeI = CC[C@H](C)[C@H](NC)C(=O)O; 3Pal = N[C@@H](Cc1cccnc1)C(=O)O; NMeβAla = CN(CCC(=O)[*:2])[*:1]; NMeL = CN[C@@H](CC(C)C)C(=O)O; NMeA = CN[C@@H](C)C(=O)O; Piperidide = C1CCN(*)CC1; dNMeA = CN[C@H](C)C(=O)O; Sar = CNCC(=O)O; tBu = CC(C)(C)*

Experiments:
[1] = PAMPA (parallel artificial membrane permeability assay); assay type: in vitro ADME; conditions: PAMPA
Summary of the method: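 Artificial membrane was 10% (w/v) egg lecithin plus 0.5% (w/v) cholesterol in dodecane on a PVDF filter. A 10 mM DMSO stock was added at 0.5% (v/v) to donor buffer (50 mM MOPSO, pH 6.5, 5.0% glycocholic acid). After 18 h at 37 °C, LC/MS or LC/UV gave donor and acceptor levels for Pe.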

[2] = Metabolic stability in human hepatic microsome; assay type: in vitro ADME; conditions: microsomes
[3] = membrane permeation rate (Pe), 50 mM MOPSO buffer pH 6.5 with 5.0% glycocholic acid, 37° C., 18 hours, read-out: iPAMPA Pe
[4] = pH 7.4, human hepatic microsome, NADPH(+), read-out: CL NADPH(+)

| SMILES | Papp at 18 hours, 50 µM [1, 3] [×10⁻⁶ cm/s] | microsomal CLint at 1 uM [2, 4] [µL/min/mg] | Papp at 18 hours, 50 µM ([1]; pH 6.5) [×10⁻⁶ cm/s] | microsomal CLint at 1 uM ([2]; human, pH 7.4, CL NADPH(+)) [µL/min/mg] |
| --- | --- | --- | --- | --- |
| CC(C)C[C@H]1C(=O)NCC(=O)N[C@H](C(=O)N(C)[C@@H](Cc2ccccc2)C(=O)N[C@@H](C)C(=O)N2CCCCC2)CC(=O)N[C@H](C(C)C)C(=O)N[C@@H]([C@@H](C)O)C(=O)N(C)[C@@H](C)C(=O)N(C)[C@@H](Cc2ccccc2)C(=O)N[C@@H](C(C)C)C(=O)N(C)[C@@H](Cc2ccccc2)C(=O)N1C [DP-382] ([dV]T[NMeA][NMeF]V[NMeF][NMeL]GD[NMeF]A-Piperidide; lactam N-9) | 49 | 188 |  |  |
| CC[C@H](C)[C@H](NC(=O)[C@@H]1CC(=O)N[C@@H](C)C(=O)N[C@@H]([C@@H](C)CC)C(=O)N(C)[C@@H](C)C(=O)N(C)[C@@H](Cc2ccccc2)C(=O)N[C@@H]([C@@H](C)O)C(=O)N(C)[C@@H](Cc2ccccc2)C(=O)N[C@@H](CC(C)C)C(=O)N2CCC[C@H]2C(=O)N1)C(=O)N1CCCCC1 [DP-669] (AI[NMeA][NMeF]T[NMeF]LPDI-Piperidide; lactam N-9) |  |  | 29 | 54 |
| CC(C)C[C@H]1C(=O)N[C@@H](COC(C)(C)C)C(=O)N[C@H](C(=O)N2CCCCC2)CC(=O)N(C)CC(=O)N[C@@H]([C@@H](C)O)C(=O)N(C)[C@@H](C)C(=O)N(C)[C@@H](Cc2ccccc2)C(=O)N(C)[C@@H](Cc2ccccc2)C(=O)N1C [DP-709] ([Sar]T[NMeA][NMeF][NMeF][NMeL]S(tBu)D-Piperidide; lactam N-8) | 35 | 90 |  |  |
| CC(C)C[C@H]1C(=O)N(C)[C@@H](CC(C)C)C(=O)N[C@H](C(=O)N(C)[C@@H](Cc2ccccc2)C(=O)N[C@@H](C)C(=O)N2CCCCC2)CC(=O)N[C@H](C(C)C)C(=O)N(C)[C@@H](C)C(=O)N(C)[C@@H](Cc2ccccc2)C(=O)N(C)[C@@H](CC(C)C)C(=O)N[C@@H](Cc2cccnc2)C(=O)N(C)CC(=O)N[C@@H](C)C(=O)N1C [DP-591] ([dV][NMeA][NMeF][NMeL][3Pal][Sar]A[NMeL][NMeL]D[NMeF]A-Piperidide; lactam N-10) | 26 | 15 |  |  |
| CC[C@H](C)[C@H](NC(=O)[C@H](CC(C)C)N(C)C(=O)[C@@H]1CCCN1C(=O)[C@H](Cc1ccccc1)N(C)C(=O)[C@@H]1CC(=O)N[C@H](C(C)C)C(=O)N[C@@H](C)C(=O)N(C)[C@@H](Cc2ccccc2)C(=O)N(C)[C@@H](C)C(=O)N[C@@H](Cc2ccccc2)C(=O)N(C)[C@@H](CC(C)C)C(=O)N[C@@H]([C@@H](C)O)C(=O)N1)C(=O)N1CCCCC1 [DP-929] ([dV]A[NMeF][NMeA]F[NMeL]TD[NMeF]P[NMeL]I-Piperidide; lactam N-8) | 12 | 49 |  |  |
| CC[C@H](C)[C@@H]1NC(=O)[C@H](CC(C)C)NC(=O)[C@H](C)N(C)C(=O)C[C@@H](C(=O)N2CCCCC2)NC(=O)[C@H](CC(C)C)NC(=O)[C@H](Cc2ccccc2)NC(=O)[C@H](Cc2ccccc2)N(C)C(=O)[C@H](CC(C)C)NC(=O)[C@H]([C@@H](C)O)NC(=O)[C@H](Cc2ccccc2)NC1=O [DP-331] ([NMeA]LIFTL[NMeF]FLD-Piperidide; lactam N-10) | 0.24 | 198 |  |  |
| CC(C)C[C@H]1C(=O)N[C@@H](COC(C)(C)C)C(=O)N[C@H](C(=O)N2CCCCC2)CC(=O)N(C)[C@H](C)C(=O)N(C)[C@@H](C)C(=O)N(C)[C@@H](Cc2ccccc2)C(=O)N(C)[C@@H](CC(C)C)C(=O)N[C@@H]([C@@H](C)O)C(=O)N(C)[C@@H](C)C(=O)N1C [DP-160] ([dNMeA][NMeA][NMeF][NMeL]T[NMeA][NMeL]S(tBu)D-Piperidide; lactam N-9) | 37 | 68 |  |  |
| CC[C@H](C)[C@@H]1NC(=O)[C@H](CC(C)C)N(C)C(=O)CN(C)C(=O)[C@H]([C@@H](C)O)NC(=O)[C@H](C)N(C)C(=O)C[C@@H](C(=O)N[C@@H](C)C(=O)N2CCC[C@H]2C(=O)N[C@@H](C)C(=O)N2CCCCC2)NC(=O)[C@H](CC(C)C)N(C)C(=O)[C@H](Cc2ccccc2)N(C)C(=O)[C@H](CC(C)C)N(C)C1=O [DP-662] ([NMeA]T[Sar][NMeL]I[NMeL][NMeF][NMeL]DAPA-Piperidide; lactam N-9) | 18 | 101 |  |  |
| CC(C)C[C@H]1C(=O)N[C@@H](Cc2ccccc2)C(=O)N[C@@H](COC(C)(C)C)C(=O)N(C)[C@@H](CC(C)C)C(=O)N(C)[C@@H](CC(C)C)C(=O)N[C@@H]([C@@H](C)O)C(=O)N[C@H](C(=O)N2CCCCC2)CC(=O)N(C)CCC(=O)N(C)[C@@H](Cc2ccccc2)C(=O)NCC(=O)N1C [DP-426] ([NMeβAla][NMeF]G[NMeL]FS(tBu)[NMeL][NMeL]TD-Piperidide; lactam N-10) | 36 | 546 |  |  |
| CC(C)C[C@@H]1NC(=O)[C@H](CC(C)C)N(C)C(=O)[C@H](C)N(C)C(=O)C[C@@H](C(=O)N2CCCCC2)NC(=O)[C@H](CC(C)C)N(C)C(=O)[C@H](Cc2ccccc2)N(C)C(=O)[C@H](C)N(C)C(=O)[C@H]([C@@H](C)O)NC(=O)[C@H](Cc2ccccc2)N(C)C1=O [DP-520] ([NMeA][NMeL]L[NMeF]T[NMeA][NMeF][NMeL]D-Piperidide; lactam N-9) | 29 | 130 |  |  |
| CC(C)C[C@H]1C(=O)N(C)[C@@H](C)C(=O)N[C@@H]([C@@H](C)O)C(=O)N(C)[C@@H](C)C(=O)N(C)[C@@H](Cc2ccccc2)C(=O)N(C)CC(=O)N[C@H](C(=O)N(C)[C@@H](Cc2ccccc2)C(=O)N[C@@H](C)C(=O)N2CCCCC2)CC(=O)N(C)[C@@H](C)C(=O)N(C)[C@@H](C)C(=O)N[C@@H](C)C(=O)N[C@@H](Cc2ccccc2)C(=O)N1C [DP-345] ([NMeA][NMeA]AF[NMeL][NMeA]T[NMeA][NMeF][Sar]D[NMeF]A-Piperidide; lactam N-11) | 2.8 | 7 |  |  |
| CC[C@H](C)[C@H]1C(=O)N[C@@H](C)C(=O)N(C)[C@@H](CC(C)C)C(=O)N[C@@H]([C@@H](C)O)C(=O)N[C@@H](Cc2ccccc2)C(=O)N(C)[C@@H](Cc2ccccc2)C(=O)N(C)[C@@H](CC(C)C)C(=O)N[C@@H](COC(C)(C)C)C(=O)N(C)[C@@H](CC(C)C)C(=O)N(C)[C@@H](C)C(=O)N[C@H](C(=O)N2CCCCC2)CC(=O)N[C@H](C(C)C)C(=O)N1C [DP-219] ([dV][NMeI]A[NMeL]TF[NMeF][NMeL]S(tBu)[NMeL][NMeA]D-Piperidide; lactam N-12) | 1.3 | 49 |  |  |
| CC(C)C[C@H]1C(=O)N[C@@H]([C@@H](C)O)C(=O)N(C)[C@@H](C)C(=O)N[C@H](C(=O)N(C)[C@@H](Cc2ccccc2)C(=O)N[C@@H](C)C(=O)N2CCCCC2)CC(=O)N(C)[C@H](C)C(=O)N(C)[C@@H](Cc2ccccc2)C(=O)N(C)[C@@H](C)C(=O)N[C@@H](C)C(=O)N(C)[C@@H](C)C(=O)N(C)[C@@H](Cc2ccccc2)C(=O)N1C [DP-353] ([dNMeA][NMeF][NMeA]A[NMeA][NMeF][NMeL]T[NMeA]D[NMeF]A-Piperidide; lactam N-10) | 16 | 13 |  |  |
| CC(C)C[C@H]1C(=O)N[C@@H](Cc2ccccc2)C(=O)N[C@H](C(=O)N(C)[C@@H](Cc2ccccc2)C(=O)N[C@@H](C)C(=O)N2CCCCC2)CC(=O)N(C)[C@@H](C)C(=O)N[C@@H]([C@@H](C)O)C(=O)N(C)[C@@H](C)C(=O)N[C@@H](C(C)C)C(=O)N(C)CC(=O)N(C)[C@@H](Cc2ccccc2)C(=O)N1C [DP-311] ([NMeA]T[NMeA]V[Sar][NMeF][NMeL]FD[NMeF]A-Piperidide; lactam N-9) |  |  | 48 | 74 |
